In assay [1] the target is T1, His93Gly sperm whale myoglobin (H93G Mb) (Physeter macrocephalus, UniProt P02185, H94G). Kind of assay: electronic absorption and MCD spectroscopy of mixed CHA/Im adduct. It is filed as binding.
For assay [2], the target named is T1, His93Gly sperm whale myoglobin (H93G Mb). Put plainly: electronic absorption and MCD spectroscopy, titration. It is filed as binding.

T1 sequence (P02185 2-154 H94G): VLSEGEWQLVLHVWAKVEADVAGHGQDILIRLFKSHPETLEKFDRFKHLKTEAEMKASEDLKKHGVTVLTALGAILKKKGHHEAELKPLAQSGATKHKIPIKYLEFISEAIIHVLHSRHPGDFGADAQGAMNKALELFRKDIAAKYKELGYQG

As to `c1c[nH]cn1` [Im, imidazole], the “electronic absorption and MCD spectroscopy of mixed CHA/Im adduct” value in assay [1] was “the final spectrum is that of a nearly homogeneous Im/CHA mixed-ligand adduct”. For the compound `NC1CCCCC1` [CHA, cyclohexylamine], the “electronic absorption and MCD spectroscopy, titration” value in assay [2] is “ferric CHA-ligated H93G Mb is a six-coordinate high-spin H93G Mb derivative with the CHA amine group as the proximal donor”.

For the origin of these results see PMC3047591 (Inorganic chemistry, 2011).
